The results in this text go back to patent US9393271B2, “GHRH agonists for islet cell transplantation and function and the treatment of diabetes” (UNIVERSITY OF MIAMI, priority 2012, dated 2016).

Non-standard residues stand in square brackets, D forms with d. Residues, ends and D or L forms follow the SMILES beside them. *: point of attachment. Desaminotyrosyl = O=C(CCc1ccc(O)cc1)*; NMeY = CN[C@@H](Cc1ccc(O)cc1)C(=O)O; Agmatine = N=C(N)NCCCCN*; Nle = CCCC[C@H](N)C(=O)O; Orn = NCCC[C@H](N)C(=O)O; Abu = CC[C@H](N)C(=O)O

The target in assay [1] is T1, GHRH receptor (human pituitary membrane homogenates) (Homo sapiens, UniProt Q02643).
T1 sequence (Q02643 23-423): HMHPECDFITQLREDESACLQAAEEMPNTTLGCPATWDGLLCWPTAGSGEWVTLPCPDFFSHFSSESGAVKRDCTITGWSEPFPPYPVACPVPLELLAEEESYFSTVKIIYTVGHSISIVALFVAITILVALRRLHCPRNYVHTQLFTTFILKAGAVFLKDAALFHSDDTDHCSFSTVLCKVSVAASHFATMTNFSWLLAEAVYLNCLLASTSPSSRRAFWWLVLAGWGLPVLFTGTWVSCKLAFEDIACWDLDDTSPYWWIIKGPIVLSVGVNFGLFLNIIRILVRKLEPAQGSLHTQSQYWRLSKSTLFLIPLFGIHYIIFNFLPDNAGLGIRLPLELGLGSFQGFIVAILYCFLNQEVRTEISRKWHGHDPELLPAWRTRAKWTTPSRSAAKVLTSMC
The assay can be described thus: GHRH receptor binding, ligand competition with 125I-labeled JV-1-42 (Table 5). The conditions noted are these: for Relative affinitiy (Binding potency) vs GHRH: GHRH(1-29) = 1; for Relative affinitiy (Binding potency) vs JI-38: JI-38 = 1.
Description: Normal human pituitaries were purchased from the National Hormone and Peptide Program (A. F. Parlow, Los Angeles, County Harbor-UCLA Medical Center, Torrance, Calif.).

For assay [2], the target named is T1, GHRH receptor (human pituitary membrane homogenates). The assay can be described thus: GHRH receptor binding, ligand competition with 125I-labeled [His1,Nle27]hGHRH(1-32)NH2 (Table 6). Particulars: for Relative affinitiy (Binding potency) vs GHRH: GHRH(1-29) = 1.
Assay [3] has the same target. As to the kind of experiment: GHRH receptor binding, ligand competition with 125I-labeled JV-1-42 (Table 7). Set-up: Normal human pituitaries were purchased from the National Hormone and Peptide Program; tissue National Hormone and Peptide Program (A. F. Parlow, Harbor-UCLA Medical Center, Torrance, Calif.); host or cells: normal human pituitary, membrane fraction / homogenate. Particulars: JI-38 = 1.

In assay [4] the test system is rat pituitary cells. The assay can be described thus: GH release in superfused rat pituitary cell system. The assay is classed as cell-based. The conditions noted are these: 1 nM; for GH Response (ng/ml) Average / GH Response (ng/ml) 1 / GH Response (ng/ml) 2 / GH Response (ng/ml) 3: 3-min pulse; for GH Response (ng/ml) Average: average of runs; for GH Response (ng/ml) 1: run 1; for GH Response (ng/ml) 2: run 2; for GH Response (ng/ml) 3: run 3. The protocol:
Growth hormone releasing activity. Growth hormone releasing was assayed by using a superfused rat pituitary cell system as described in S. Vigh and A. V. Schally, Peptides 5, Suppl: 241-347, 1984. The new synthetic peptide analog of hGHRH P20356 and JI-38 (as control) were administered for 3 minutes (1 mL perfusate) at 1 nM concentration as shown below. Fractions of 1 ml are collected and the GH content in each was determined by ELISA.
Pituitary cells from 2 male rats were used for each channel of the superfusion system. The cells were exposed to 3-min pulses of the new GHRH agonists or to JI-38 as standard every 30 min. Outflowing samples of each channel (1 ml) were collected every 3 min, and GH levels were determined by ELISA.

Assay [5] relates to GH level. The assay can be described thus: In vivo endocrine activity (GH release), subcutaneous administration. Particulars: rat, s.c. How it is done: Subcutaneous Administration. Adult male rats were used and anesthetized with pentobarbital (6 mg/100 g, b.w.), by i.p. injection. […] Blood samples were taken from the jugular vein 5, 15 and/or 30 minutes after the injection. The blood samples were centrifuged, plasma was removed and the GH level was measured by ELISA. The results are summarized in terms of potency in Table 9.

Setting [6] is: fraction 1 (P-20356) / 21 (JI-38).
[7] abbreviates: fraction 2 (P-20356) / 22 (JI-38).
Setting [8] is: fraction 3 (P-20356) / 23 (JI-38).
Where [9] appears, read: fraction 4 (P-20356) / 24 (JI-38).
The mark [10] stands for this setting: fraction 5 (P-20356) / 25 (JI-38).

For `CC[C@H](C)[C@H](NC(=O)[C@H](C)NC(=O)[C@H](CC(=O)O)NC(=O)[C@H](C)NC(=O)[C@@H](N)Cc1ccc(O)cc1)C(=O)N[C@@H](Cc1ccccc1)C(=O)N[C@H](C(=O)N[C@@H](CC(N)=O)C(=O)N[C@@H](CO)C(=O)N[C@@H](Cc1ccc(O)cc1)C(=O)N[C@@H](CCCNC(=N)N)C(=O)N[C@@H](CCCCN)C(=O)N[C@H](C(=O)N[C@@H](CC(C)C)C(=O)NCC(=O)N[C@@H](CCC(N)=O)C(=O)N[C@@H](CC(C)C)C(=O)N[C@@H](CO)C(=O)N[C@@H](C)C(=O)N[C@@H](CCCNC(=N)N)C(=O)N[C@@H](CCCCN)C(=O)N[C@@H](CC(C)C)C(=O)N[C@@H](CC(C)C)C(=O)N[C@@H](CCC(N)=O)C(=O)N[C@@H](CC(=O)O)C(=O)N[C@H](C(=O)N[C@@H](CCSC)C(=O)N[C@@H](CO)C(=O)N[C@@H](CCCNC(=N)N)C(N)=O)[C@@H](C)CC)C(C)C)[C@@H](C)O` [GHRH(1-29), hGHRH(1-29)NH2, reference compound], the “Relative affinitiy (Binding potency) vs GHRH” value (“Relative affinitiy … vs GHRH” for short) in assay [1] and in assay [2] was 1 in each case.

Turning to `CCCC[C@H](NC(=O)[C@@H](NC(=O)[C@H](CC(=O)O)NC(=O)[C@H](CCC(N)=O)NC(=O)[C@H](CC(C)C)NC(=O)[C@H](CC(C)C)NC(=O)[C@H](CCCN)NC(=O)[C@H](CCCNC(=N)N)NC(=O)[C@H](C)NC(=O)[C@H](CO)NC(=O)[C@H](CC(C)C)NC(=O)[C@H](CCC(N)=O)NC(=O)[C@H](CC)NC(=O)[C@H](CC(C)C)NC(=O)[C@@H](NC(=O)[C@H](CCCN)NC(=O)[C@H](CCCNC(=N)N)NC(=O)[C@H](Cc1ccc(O)cc1)NC(=O)[C@H](CO)NC(=O)[C@H](CCC(N)=O)NC(=O)[C@@H](NC(=O)[C@H](Cc1ccccc1)NC(=O)[C@@H](NC(=O)[C@H](C)NC(=O)[C@H](CC(=O)O)NC(=O)[C@H](C)NC(=O)CCc1ccc(O)cc1)[C@@H](C)CC)[C@@H](C)O)C(C)C)[C@@H](C)CC)C(=O)N[C@@H](CC(=O)O)C(=O)NCCCCNC(=N)N` [JI-38, reference compound] (Desaminotyrosyl-ADAIFTQSYR[Orn]VL[Abu]QLSAR[Orn]LLQDI[Nle]D-Agmatine), the “Relative affinitiy … vs GHRH” value came to 2.4 in assay [1] and 3.03 in assay [2]. Further, the “Relative affinitiy (Binding potency) vs JI-38” value in assay [1], in assay [3] and in assay [2] (JI-38 = 1) was 1 each time. For the same molecule, the “GH Response (ng/ml) Average” value in assay [4] (setting [6]) was 49.27 ng/mL; in assay [4] (setting [7]), 131.71 ng/mL; in assay [4] (setting [8]), 194.68 ng/mL; in assay [4] (setting [9]) it was 137.45 ng/mL; in assay [4] (setting [10]), 96.70 ng/mL. For the same molecule, the “GH Response (ng/ml) 1” value worked out at 42.46 ng/mL in assay [4] (setting [6]); 143.58 ng/mL in assay [4] (setting [7]); 222.13 ng/mL in assay [4] (setting [8]); 142.96 ng/mL in assay [4] (setting [9]); 96.34 ng/mL in assay [4] (setting [10]). The “GH Response (ng/ml) 2” value in assay [4] (setting [6]) was 56.07 ng/mL; in assay [4] (setting [7]) it was 119.83 ng/mL; in assay [4] (setting [8]), 167.23 ng/mL; in assay [4] (setting [9]), 131.93 ng/mL; in assay [4] (setting [10]), 97.05 ng/mL.

In the case of `CCCC[C@H](NC(=O)[C@@H](NC(=O)[C@H](CC(=O)O)NC(=O)[C@H](CCC(N)=O)NC(=O)[C@H](CC(C)C)NC(=O)[C@H](CC(C)C)NC(=O)[C@H](CCCN)NC(=O)[C@H](CCCNC(=N)N)NC(=O)[C@H](C)NC(=O)[C@H](CO)NC(=O)[C@H](CC(C)C)NC(=O)[C@H](CCC(N)=O)NC(=O)[C@H](CC)NC(=O)[C@H](CC(C)C)NC(=O)[C@@H](NC(=O)[C@H](CCCN)NC(=O)[C@H](CCCNC(=N)N)NC(=O)[C@H](Cc1ccc(O)cc1)NC(=O)[C@H](CO)NC(=O)[C@H](CCC(N)=O)NC(=O)[C@@H](NC(=O)[C@H](Cc1ccccc1)NC(=O)[C@@H](NC(=O)[C@H](C)NC(=O)[C@H](CC(=O)O)NC(=O)[C@H](C)NC(=O)[C@H](Cc1ccc(O)cc1)NC)[C@@H](C)CC)[C@@H](C)O)C(C)C)[C@@H](C)CC)C(=O)N[C@@H](CC(=O)O)C(=O)NCCCCNC(=N)N` [Peptide P-20356, [N—Me-Tyr^1, Gln^8, Orn^12, Abu^15, Orn^21, Nle^27, Asp^28, Agm^29]hGHRH(1-29)] (H-[NMeY]ADAIFTQSYR[Orn]VL[Abu]QLSAR[Orn]LLQDI[Nle]D-Agmatine), in assay [5], the “Stimulation of growth hormone levels after s.c. administration (comparison in words)” value is given as “stimulated greater growth hormone levels than hGHRH or JI-38”. Further, the “Relative affinitiy … vs GHRH” value in assay [1] was 406.0. Further, the figures for the “Relative affinitiy (Binding potency) vs JI-38” value in assay [1] and in assay [3] were 171 and 16.11, respectively. Besides, the “GH Response (ng/ml) Average” value in assay [4] (setting [6]) came to 52.45 ng/mL; in assay [4] (setting [7]), 337.48 ng/mL; in assay [4] (setting [8]), 556.46 ng/mL; in assay [4] (setting [9]), 334.99 ng/mL; in assay [4] (setting [10]), 197.91 ng/mL. Also, the “GH Response (ng/ml) 1” value in assay [4] (setting [6]) amounted to 49.98 ng/mL; in assay [4] (setting [7]) it was 310.58 ng/mL; in assay [4] (setting [8]), 491.01 ng/mL; in assay [4] (setting [9]) it was 399.95 ng/mL; in assay [4] (setting [10]), 200.64 ng/mL. For the same molecule, the “GH Response (ng/ml) 2” value in assay [4] (setting [6]) worked out at 54.99 ng/mL; in assay [4] (setting [7]) it was 325.76 ng/mL; in assay [4] (setting [8]) it was 602.1 ng/mL; in assay [4] (setting [9]), 270.02 ng/mL; in assay [4] (setting [10]), 195.18 ng/mL. In addition, the “GH Response (ng/ml) 3” value in assay [4] (fraction 1) stood at 52.37 ng/mL; in assay [4] (fraction 2) it was 376.11 ng/mL; in assay [4] (fraction 3) it was 576.26 ng/mL. Also, in assay [4] (superfused rat pituitary cells), the “GH-releasing potency in vitro relative to JI-38” value was “about 3 times”.
